These results are taken from PMC8472790, “Dual Emissive Ir(III) Complexes for Photodynamic Therapy and Bioimaging” (Pharmaceutics, 2021).

Series [1] has as its system A549 cells. Briefly: Cell morphology by phase contrast (inverted) microscopy. The following applies: A549, 10 to 20 µM, 20 h. It counts as cell-based, Human. The protocol: Alterations in cell morphology and behavior as a consequence of the exposition to ligands and complexes were analyzed using an inverted microscope (Figure 5). […] Oppositely, complexes 1–4 were able to modify cell aspect. All of them triggered cytoplasmic vesicle formation, which was more remarkable for compounds 3 and 4, containing the bzq orthometallated ligand. Moreover, even though cell division still took place in the presence of all of them, it became patently clear that they have cytotoxic properties, being more evident for complexes 1 and 2.
Figure 5 Phase contrast microscopy images of A549 cells treated with L1, L2 and 1–4 at concentrations between 10 and 20 µM for 20 h. Black arrows point to apoptotic cells. Little black triangles show examples of cells containing cytoplasmic vesicles.

The test system of series [2] is A549 lung carcinoma cells. The series can be described thus: MTT-reduction cell viability assay, dark and after LED irradiation. It counts as cell-based, Human. The following applies: for PI (Phototoxic index), 405 nm: IC50 dark / IC50 at 405 nm; for PI (Phototoxic index), 470 nm: IC50 dark / IC50 at 470 nm. The protocol:
Human lung carcinoma A549 cell line (from ATCC, Manassas, VA, USA) was cultured in high glucose Dubecco’s Modified Eagle’s Medium (DMEM) supplemented with 5% fetal bovine serum (FBS) as well as L-glutamine and penicillin/streptomycin at 37 °C in a humidified atmosphere of 95% air and 5% CO2.
Cell metabolic activity was analyzed by an MTT-reduction assay to assess the A549 cell sensitivity to the complexes. Thus, 10^5 cells(A549)/mL were seeded in flat-bottom 96-well plates (100 µL/well) in complete medium and allowed to attach for 24 h. A stock solution of the complexes was prepared in DMSO 0.1 M. Subsequent dilutions of the different stock solutions from the complexes using DMEM were prepared. 100 µL/well were added to the cells, in concentrations ranging from 0.2 to 50 µM. each concentration was performed by quadruplicate. After 5 h of incubation with the complexes, duplicates of each concentration were irradiated with an LED lamp upon 405 and 470 nm with a light dose of 6.5 and 15.1 J/m^2, respectively, for 10 min. Before irradiation, culture medium was replaced with fresh medium in order to avoid interference with non-internalized complexes. Cells were cultured for a further 19 h. 10 µL of MTT (5 mg ml^−^1 in PBS) were added to each well and then further 2 h incubation was allowed at 37 °C. Finally, after removing the culture medium, DMSO (100 µL/well) was added to dissolve the formazan crystals. Multiskan EX 96-well multiscanner autoreader (Thermo Fisher Scientific, Waltham, MA, USA) was used to determine the optical density at 550 nm and IC50 was calculated. Each experiment was repeated at least three independent analyses.

Series [3] in a line: Distribution coefficient n-octanol/water, shake-flask method. The following applies: pH = 7.4, n-octanol/phosphate buffered saline, 298 K. It counts as physicochemical. The protocol:
The n-octanol-water coefficient of complexes 1–4 and L1 and L2 were determined using a shake-flask method. A mixture of buffered-saline distilled water (100 mL, phosphate buffer [PO4^3−] = 10 mM, [NaCl] = 0.15 M, pH 7.4) and n-octanol (100 mL) was shaken for 72 h to allow saturation of both phases. Approximately 0.5 mg of the complexes or ligands werw dissolved in 5 mL of the aqueous phase and 5 mL of the organic phase were added, mixing for 10 min. The resulting emulsion was centrifuged to separate the phases. The concentration of the compounds in each phase was determined using UV absorbance spectroscopy at 298 K. logP7.4 was defined as log{[compound(organic phase)]/[compound(aqueous phase)]}.

In series [4] the test system is A549 cells. The series can be described thus: Cell cycle analysis, propidium iodide flow cytometry. It counts as cell-based, Human. The following applies: for Cell distribution G0-G1 / Cell distribution G2-M / Cell distribution S: 5 h + 19 h. The protocol: 4 × 105. […] Thereupon, cell culture was changed, and half of the experimental points were irradiated at 470 nm. After 19 h in culture, cells were trypsinized, washed twice with PBS, fixed with cold 70% ethanol (v/v) by vortexing and stored at −20 °C for at least 24 h. After that, cells were wash with cold PBS and stained with 500 μL of a solution of propidium iodide (PI) and RNase (Immunostep, Salamanca, Spain) for 20 min at rt in the dark. Finally, a total of 10,000 cells were acquired on a FACSCalibur^TM flow cytometer and data were analyzed using the aforementioned softwares.

The test system of series [5] is A549 cells. The series can be described thus: ROS production measurement with dihydroethidium (DHE) by flow cytometry. It counts as cell-based, Human. The settings on record: A549, IC50 to ¼ IC50, dark and irradiation at 470 nm for 10 min. The protocol:
Cells were incubated with the complex for 5 h and subsequently half of the experimental points were irradiated at 470 nm after replacing culture medium. Upon 19 h, cells were trypsinized, resuspended in 100 μL of a mixture of PBS and 2 μM of the dihydroethidium (DHE) probe, incubated at 37 °C in the dark for 15 min and diluted to 300 μL with PBS. Lastly, a total of 10,000 events were acquired on a FACSCalibur^TM flow cytometer and data were analyzed using the aforementioned softwares

Series [6] concerns A549 cells. The series can be described thus: Cytotoxicity assay by flow cytometry, Annexin V-DY634 / 7-AAD double staining. It counts as cell-based, Human. The following applies: A549, dark and irradiation at 470 nm. (In general: In flow cytometry, cells or beads pass a laser one at a time.)
Procedure: Necrotic and apoptotic cell death was determined by measuring cell membrane permeabilization and phosphatidylserine exposure on cell surface in A549 cells, respectively. 10^5 cells/well were seeded in flat-bottom, 12-well plates (1 mL/well) in complete medium and left 12 h to attach to the plates. […] After 19 h, cells were trypsinized and thereafter resuspended in 50 μL of a mixture of DY634-conjugated Annexin V, Annexin-binding buffer (ABB; 140 mM NaCl, 2.5 mM CaCl2, 10 mM HEPES/NaOH pH 7.4) and 7-amino-actinomycin D (7-AAD). After incubation for further 15 min at rt in dark, cells were diluted to 300 μL with ABB. A total of 10,000 cells were acquired on a FACSCalibur^TM flow cytometer (BD Biosciences, San Jose, CA, USA) and cell death analysis was performed using Flowjo 7.6.1 (Becton Dickinson (BD), Franklin Lakes, NJ, USA), CellQuest Pro (BD Biosciences) and GraphPad Prism 8 (GraphPad Software, San Diego, CA, USA) softwares.
Where [7] appears, read: Homo sapiens, light or radiation study, 24 h incubation, no irradiation, read-out: IC50 (DARK).
Setting [8] is: 5 h incubation, irradiation 10 min at 405 nm (6.5 J/m^2), further 19 h, read-out: IC50(λexc 405 nm).
Setting [9] is: 5 h incubation, irradiation 10 min at 470 nm (15.1 J/m^2), further 19 h, read-out: IC50(λexc 470 nm).
Setting [10] is: 24 h incubation, no irradiation, read-out: IC50 (DARK).
[11] abbreviates: A549, irradiation at 470 nm, 0.0975 μM (25% IC50).

Read-outs that look alike come from different tables or passages of the source.

As a reminder, the IC50 is the concentration that inhibits the measured activity by half. Broadly, the logP is the decadic logarithm of the partition coefficient of the neutral form, usually between octanol and water. Read a high logP as higher lipophilicity. With `c1ccc(N(c2ccccn2)c2c3ccccc3cc3ccccc23)nc1` [Complex L1], the “Alterations in cell morphology” value with A549 cells [1] is given as “apoptotic or necrotic cells were not detected”. The IC50 in series [2] (setting [7]) is more than 50 µM. This molecule also had a logP in series [3] of 1.2.
On to `[Cl-].c1ccc(-c2cccc[c]2[Ir+][c]2ccccc2-c2ccccn2)nc1.c1ccc(N(c2ccccn2)c2c3ccccc3cc3ccccc23)nc1` [Complex 1], for which the half-inhibitory concentration (IC50) came out at 1.16 ± 0.06 µM in series [2] (setting [8]), 0.18 ± 0.05 µM in series [2] (setting [9]) and 13.6 ± 0.08 µM in series [2] (setting [10]). Moreover, in series [2], the “PI (Phototoxic index), 405 nm” value amounted to 11.7. The “PI (Phototoxic index), 470 nm” value in series [2] was determined as 75.5. The “logP(Oct/W)” value in series [3] is recorded as 0.75.
Regarding `c1ccc(N(c2ccccn2)c2c3ccccc3nc3ccccc23)nc1` [Complex L2], the “Alterations in cell morphology” value in the series with A549 cells [1] is “apoptotic or necrotic cells were not detected”. The 50% inhibitory concentration (IC50) in series [2] (setting [7]) is more than 50 µM. In series [3], this molecule displayed a logP of 0.59.
In the case of [Ir(bzq)2(dpa-acr)]^+ [Complex 4], the “Cell distribution G0-G1” value is on record as 72.4% with A549 cells [4] (A549, dark, 10.9 μM (25% IC50)) and 73.7% in the series with A549 cells [4] (setting [11]). The “Cell distribution G2-M” value in the series with A549 cells [4] (A549, dark, 10.9 μM (25% IC50)) is listed as 13.5%; in the series with A549 cells [4] (setting [11]) it was 14.0%. Moreover, the “Cell distribution S” value worked out at 14.1% in the series with A549 cells [4] (A549, dark, 10.9 μM (25% IC50)) and 12.3% in the series with A549 cells [4] (setting [11]). Further, the Cell cycle arrest entry in the series on A549 cells [4] (A549, ¼ IC50, dark and irradiation at 470 nm) is reported as “not capable of stopping the cell cycle at any of its phases”. Also, the IC50 in series [2] (setting [8]) was more than 5 µM; in series [2] (setting [9]) it was 0.39 ± 0.09 µM; in series [2] (setting [10]), 43.38 ± 0.14 µM. Also, the “ROS generation (DHE)” value in the series with A549 cells [5] was “concentration-dependent ROS generation”. Further, the “logP(Oct/W)” value in series [3] was determined as 1.24. The Cell death pathway entry in the series on A549 cells [6] is on record as “triggers the apoptotic pathway”.
As to `[Cl-].c1ccc(N(c2ccccn2)c2c3ccccc3cc3ccccc23)nc1.c1cnc2c(c1)ccc1ccc[c]([Ir+][c]3cccc4ccc5cccnc5c34)c12` [Complex 3], the IC50 in series [2] (setting [8]) amounted to 1.35 ± 0.08 µM; in series [2] (setting [9]) it was 0.4 ± 0.08 µM; in series [2] (setting [10]) it was 18.9 ± 0.12 µM. Further, in series [2], the “PI (Phototoxic index), 405 nm” value stood at 14.0. In series [2], the “PI (Phototoxic index), 470 nm” value came to 47.2. Moreover, in series [3], the “logP(Oct/W)” value was found to be 1.73.
